Patent US10544143B2, “4-azaindole compounds” (BRISTOL-MYERS SQUIBB COMPANY, priority 2017, dated 2020)

Key:
[1] = biological target: human TLR8 (Homo sapiens (Human), UniProt Q9NR97); assay: TLR8 inhibition reporter assay (HEK-Blue SEAP); conditions: read-out: TLR8 IC50; HEK-Blue cells overexpressing human TLR8, R848 15.9 μM stimulation, SEAP reporter;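 also: SEAP driven by IFN-β minimal promoter carrying NF-κB and AP-1 sites, compounds dosed 0.05 nM to 50 µM for 22 h, inhibition scaled between agonist-plus-DMSO and reference-inhibitor wells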
Sequence of human TLR8 (Q9NR97 27-1041): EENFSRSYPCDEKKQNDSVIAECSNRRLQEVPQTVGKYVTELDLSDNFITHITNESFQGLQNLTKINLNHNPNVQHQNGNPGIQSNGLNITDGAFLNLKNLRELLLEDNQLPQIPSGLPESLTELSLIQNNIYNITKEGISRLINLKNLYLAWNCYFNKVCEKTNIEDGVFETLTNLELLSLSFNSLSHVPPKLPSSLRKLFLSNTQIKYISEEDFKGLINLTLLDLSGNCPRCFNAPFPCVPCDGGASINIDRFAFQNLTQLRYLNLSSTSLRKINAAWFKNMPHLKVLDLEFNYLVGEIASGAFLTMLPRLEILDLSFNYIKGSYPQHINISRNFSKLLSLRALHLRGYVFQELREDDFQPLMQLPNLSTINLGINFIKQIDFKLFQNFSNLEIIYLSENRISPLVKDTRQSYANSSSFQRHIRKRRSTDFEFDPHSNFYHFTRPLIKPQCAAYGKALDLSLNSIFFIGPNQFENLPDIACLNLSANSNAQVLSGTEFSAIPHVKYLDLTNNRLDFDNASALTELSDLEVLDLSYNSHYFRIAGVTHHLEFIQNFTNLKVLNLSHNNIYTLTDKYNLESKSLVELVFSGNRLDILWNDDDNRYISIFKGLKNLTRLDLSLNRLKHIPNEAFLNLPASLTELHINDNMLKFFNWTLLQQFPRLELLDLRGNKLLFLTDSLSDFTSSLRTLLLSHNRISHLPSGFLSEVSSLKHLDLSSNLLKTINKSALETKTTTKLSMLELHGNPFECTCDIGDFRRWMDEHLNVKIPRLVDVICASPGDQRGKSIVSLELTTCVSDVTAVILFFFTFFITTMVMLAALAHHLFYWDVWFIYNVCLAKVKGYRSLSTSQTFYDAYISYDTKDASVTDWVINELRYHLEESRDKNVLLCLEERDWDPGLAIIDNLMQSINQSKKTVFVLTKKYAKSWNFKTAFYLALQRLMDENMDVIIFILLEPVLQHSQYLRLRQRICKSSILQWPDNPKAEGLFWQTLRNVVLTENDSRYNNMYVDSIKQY

[2] = biological target: human TLR9 (Homo sapiens (Human), UniProt Q9NR96); assay: TLR9 inhibition reporter assay (HEK-Blue SEAP); conditions: read-out: TLR9 IC50; HEK-Blue cells overexpressing human TLR9, ODN2006 5 nM stimulation, SEAP reporter;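 also: SEAP driven by an IFN-β minimal promoter with NF-κB and AP-1 sites, read after 22 h, compounds dosed 0.05 nM–50 µM, inhibition scaled between agonist plus DMSO and reference-inhibitor wells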
Sequence of human TLR9 (Q9NR96 26-1032): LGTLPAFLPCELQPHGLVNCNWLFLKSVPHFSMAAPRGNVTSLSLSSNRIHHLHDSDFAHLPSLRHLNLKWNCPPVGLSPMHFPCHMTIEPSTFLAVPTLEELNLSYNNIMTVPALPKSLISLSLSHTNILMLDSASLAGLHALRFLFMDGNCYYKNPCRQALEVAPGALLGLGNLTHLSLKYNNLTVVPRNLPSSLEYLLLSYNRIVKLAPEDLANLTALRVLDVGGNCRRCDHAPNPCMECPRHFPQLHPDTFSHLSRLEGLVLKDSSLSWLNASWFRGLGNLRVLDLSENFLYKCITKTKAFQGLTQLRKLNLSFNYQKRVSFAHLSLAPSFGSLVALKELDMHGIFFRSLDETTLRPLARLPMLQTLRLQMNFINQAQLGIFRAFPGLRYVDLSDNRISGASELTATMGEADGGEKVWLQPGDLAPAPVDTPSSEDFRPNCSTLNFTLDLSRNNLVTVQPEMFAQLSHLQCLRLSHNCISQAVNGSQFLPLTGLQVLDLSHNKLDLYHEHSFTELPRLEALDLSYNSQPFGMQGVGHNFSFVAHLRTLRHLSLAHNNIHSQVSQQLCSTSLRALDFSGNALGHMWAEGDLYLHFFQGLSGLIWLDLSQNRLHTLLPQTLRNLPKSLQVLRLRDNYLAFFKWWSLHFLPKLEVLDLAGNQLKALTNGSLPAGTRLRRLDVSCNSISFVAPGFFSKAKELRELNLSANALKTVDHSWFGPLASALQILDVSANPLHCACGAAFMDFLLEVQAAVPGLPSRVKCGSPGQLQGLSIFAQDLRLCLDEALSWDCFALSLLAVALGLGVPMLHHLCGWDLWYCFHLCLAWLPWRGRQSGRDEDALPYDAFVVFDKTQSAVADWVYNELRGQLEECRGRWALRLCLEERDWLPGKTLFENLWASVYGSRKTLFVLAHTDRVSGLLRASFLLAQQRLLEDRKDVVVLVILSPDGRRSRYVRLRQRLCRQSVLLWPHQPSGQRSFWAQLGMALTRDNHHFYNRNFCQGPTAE
Experimental: HEK-Blue™-cells (Invivogen) overexpressing human TLR7, TLR8 or TLR9 receptors were used for screening inhibitors of these receptors using an inducible SEAP (secreted embryonic alkaline phosphatase) reporter gene under the control of the IFN-β minimal promoter fused to five NF-κB and AP-1-binding sites. Briefly, cells are seeded into Greiner 384 well plates (15000 cells per well for TLR7, 20,000 for TLR8 and 25,000 for TLR9) and then treated with test compounds in DMSO to yield a final dose response concentration range of 0.05 nM-50 μM. After a 30 minute compound pre-treatment at room temperature, the cells are then stimulated with a TLR7 ligand (gardiquimod at a final concentration of 7.5 μM), TLR8 ligand (R848 at a final concentration of 15.9 μM) or TLR9 ligand (ODN2006 at a final concentration of 5 nM) to activate NF-κB and AP-1 which induce the production of SEAP. After a 22 hour incubation at 37° C., 5% CO2, SEAP levels are determined with the addition of HEK-Blue™ Detection reagent (Invivogen), a cell culture medium that allows for detection of SEAP, according to manufacturer's specifications.

[3] = biological target: human TLR7 (Homo sapiens (Human), UniProt Q9NYK1); assay: TLR7 inhibition reporter assay (HEK-Blue SEAP); assay type: cell-based; conditions: HEK-Blue cells overexpressing human TLR7, gardiquimod 7.5 μM stimulation, SEAP reporter
Sequence of human TLR7 (Q9NYK1 27-1049): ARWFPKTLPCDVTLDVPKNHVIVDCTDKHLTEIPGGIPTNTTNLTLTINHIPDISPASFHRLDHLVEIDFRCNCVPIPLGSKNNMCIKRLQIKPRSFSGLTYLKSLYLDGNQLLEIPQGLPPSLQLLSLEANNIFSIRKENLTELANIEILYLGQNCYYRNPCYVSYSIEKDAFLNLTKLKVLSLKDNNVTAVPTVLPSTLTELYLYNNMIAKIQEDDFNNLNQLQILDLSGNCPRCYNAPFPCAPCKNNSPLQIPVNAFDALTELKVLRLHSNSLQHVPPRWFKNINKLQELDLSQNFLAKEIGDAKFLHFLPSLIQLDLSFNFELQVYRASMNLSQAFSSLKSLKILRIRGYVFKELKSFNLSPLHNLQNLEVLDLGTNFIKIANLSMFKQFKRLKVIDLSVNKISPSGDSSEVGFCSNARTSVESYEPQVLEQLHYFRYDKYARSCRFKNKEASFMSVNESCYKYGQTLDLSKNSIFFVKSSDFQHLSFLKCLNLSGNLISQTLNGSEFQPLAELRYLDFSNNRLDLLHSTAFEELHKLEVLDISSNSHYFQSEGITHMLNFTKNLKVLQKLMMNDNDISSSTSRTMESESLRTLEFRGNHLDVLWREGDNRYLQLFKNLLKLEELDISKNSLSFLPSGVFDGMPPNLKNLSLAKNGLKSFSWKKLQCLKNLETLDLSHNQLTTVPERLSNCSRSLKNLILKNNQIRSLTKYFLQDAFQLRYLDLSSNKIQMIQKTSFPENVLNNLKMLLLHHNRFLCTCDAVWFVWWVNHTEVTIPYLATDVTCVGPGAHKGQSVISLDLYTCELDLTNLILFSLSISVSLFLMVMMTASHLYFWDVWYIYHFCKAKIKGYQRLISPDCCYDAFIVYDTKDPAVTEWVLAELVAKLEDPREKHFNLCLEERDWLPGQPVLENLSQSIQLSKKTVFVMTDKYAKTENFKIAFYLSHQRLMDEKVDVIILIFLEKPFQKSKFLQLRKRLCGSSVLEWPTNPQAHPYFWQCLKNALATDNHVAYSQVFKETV

IC50 [1] | IC50 [2] | IC50 [3] | SMILES
1.6 nM | 577 nM | 0.26 nM | COc1cc(-c2[nH]c3cc(C)c(C4CCC(NCC5(C)COC5)CC4)nc3c2C(C)C)cn2ncnc12 (stereo not drawn) [Example 312]
47 nM | 5510 nM | 2.4 nM | COc1cc(-c2[nH]c3cc(C)c(C4CCC(NCC(C)(C)O)CC4)nc3c2C(C)C)cn2ncnc12 (stereo not drawn) [Example 314]
29 nM | 5220 nM | 1.8 nM | COc1cc(-c2[nH]c3cc(C)c(C4CCC(NCC5(C)COC5)CC4)nc3c2C(C)C)cn2ncnc12 (stereo not drawn) [Example 315]
94 nM | 3610 nM | 4.8 nM | COc1cc(-c2[nH]c3cc(C)c(C4CCC(N5CC6(COC6)C5)CC4)nc3c2C(C)C)cn2ncnc12 (stereo not drawn) [Example 317]
2.1 nM | 1060 nM | 0.17 nM | COc1cc(-c2[nH]c3cc(C)c(C4CCC(N)CC4)nc3c2C(C)C)cn2ncnc12 (stereo not drawn) [Example 318]
4.1 nM | 1690 nM | 0.44 nM | COc1cc(-c2[nH]c3cc(C)c(C4CCC(N5CC6(COC6)C5)CC4)nc3c2C(C)C)cn2ncnc12 (stereo not drawn) [Example 319]
19 nM | 7410 nM | 1.7 nM | COc1cc(-c2[nH]c3cc(C)c(C4CCC(NCC(F)F)CC4)nc3c2C(C)C)cn2ncnc12 (stereo not drawn) [Example 322]
31 nM | 1360 nM | 1.1 nM | COc1cc(-c2[nH]c3cc(C)c(C4CCC(N)CC4)nc3c2C(C)C)cn2ncnc12 (stereo not drawn) [Example 323]
240 nM | 20500 nM | 6.6 nM | COc1cc(-c2[nH]c3cc(C)c(C4CCC(NCC(F)F)CC4)nc3c2C(C)C)cn2ncnc12 (stereo not drawn) [Example 324]
> 3120 nM | > 50000 nM | > 3120 nM | COCCNC1CCC(c2nc3c(C(C)C)c(-c4cc(OC)c5ncnn5c4)[nH]c3cc2C)CC1 (stereo not drawn) [Example 327]
1.1 nM | 576 nM | 0.08 nM | COc1cc(-c2[nH]c3cc(C)c(C4CCC(NC5CCOC5)CC4)nc3c2C(C)C)cn2ncnc12 (stereo not drawn) [Example 328]
23 nM | 2070 nM | 1.6 nM | COc1cc(-c2[nH]c3cc(C)c(C4CCC(NC5CCOC5)CC4)nc3c2C(C)C)cn2ncnc12 (stereo not drawn) [Example 329]
350 nM | > 50000 nM | 21 nM | COc1cc(-c2[nH]c3cc(C)c(C4CCC(N5CC(F)(F)C5)CC4)nc3c2C(C)C)cn2ncnc12 (stereo not drawn) [Example 337]
1170 nM | > 50000 nM | 81 nM | COc1cc(-c2[nH]c3cc(C)c(C4CCC(N5CC(F)(F)C5)CC4)nc3c2C(C)C)cn2ncnc12 (stereo not drawn) [Example 338]
0.32 nM | 2640 nM | 0.12 nM | COc1cc(-c2[nH]c3cc(F)c(C4CCC(NCC5(C)COC5)CC4)nc3c2C(C)C)cn2ncnc12 (stereo not drawn) [Example 341]
3.9 nM | 1910 nM | 0.98 nM | COc1cc(-c2[nH]c3cc(F)c(C4CCC(NCC5(C)COC5)CC4)nc3c2C(C)C)cn2ncnc12 (stereo not drawn) [Example 342]
0.54 nM | 1250 nM | 0.19 nM | COc1cc(-c2[nH]c3cc(F)c(C4CCC(N5CC6(COC6)C5)CC4)nc3c2C(C)C)cn2ncnc12 (stereo not drawn) [Example 343]
4.8 nM | 2790 nM | 0.72 nM | COc1cc(-c2[nH]c3cc(F)c(C4CCC(N5CC6(COC6)C5)CC4)nc3c2C(C)C)cn2ncnc12 (stereo not drawn) [Example 344]
0.68 nM | 1680 nM | 0.21 nM | COc1cc(-c2[nH]c3cc(F)c(C4CCC(NC5COC5)CC4)nc3c2C(C)C)cn2ncnc12 (stereo not drawn) [Example 345]
6 nM | 6290 nM | 0.32 nM | COc1cc(-c2[nH]c3cc(F)c(C4CCC(NC5COC5)CC4)nc3c2C(C)C)cn2ncnc12 (stereo not drawn) [Example 346]
1 nM | 2470 nM | 0.27 nM | CNC1CCC(c2nc3c(C(C)C)c(-c4cc(OC)c5ncnn5c4)[nH]c3cc2F)CC1 (stereo not drawn) [Example 347]
8.3 nM | 6960 nM | 0.82 nM | CNC1CCC(c2nc3c(C(C)C)c(-c4cc(OC)c5ncnn5c4)[nH]c3cc2F)CC1 (stereo not drawn) [Example 348]

Continued, molecule first:

SMILES | IC50 [1] | IC50 [2] | IC50 [3]
CCN(C)C1CCC(c2nc3c(C(C)C)c(-c4cc(OC)c5ncnn5c4)[nH]c3cc2C)CC1 (stereo not drawn) [Example 313] | 7 nM | 1200 nM | 0.21 nM
COc1cc(-c2[nH]c3cc(C)c(C4CCC(NC5COC5)CC4)nc3c2C(C)C)cn2ncnc12 (stereo not drawn) [Example 316] | 41 nM | 3020 nM | 1.4 nM
CCN(C)C1CCC(c2nc3c(C(C)C)c(-c4cc(OC)c5ncnn5c4)[nH]c3cc2C)CC1 (stereo not drawn) [Example 320] | 22 nM | 1480 nM | 1 nM
COc1cc(-c2[nH]c3cc(C)c(C4CCC(N5CCC5)CC4)nc3c2C(C)C)cn2ncnc12 (stereo not drawn) [Example 325] | 38 nM | 3110 nM | 1.5 nM
COc1cc(-c2[nH]c3cc(C)c(C4CCC(N5CCC5)CC4)nc3c2C(C)C)cn2ncnc12 (stereo not drawn) [Example 326] | 3.7 nM | 988 nM | 0.13 nM
COc1cc(-c2[nH]c3cc(C)c(C4CCC(N(C)C5COC5)CC4)nc3c2C(C)C)cn2ncnc12 (stereo not drawn) [Example 330] | 4.8 nM | 2970 nM | 0.14 nM
COc1cc(-c2[nH]c3cc(C)c(C4CCC(N(C)C5COC5)CC4)nc3c2C(C)C)cn2ncnc12 (stereo not drawn) [Example 331] | 34 nM | 1910 nM | 1.7 nM
COc1cc(-c2[nH]c3cc(C)c(C4CCC(N(C)Cc5ncn(C)n5)CC4)nc3c2C(C)C)cn2ncnc12 (stereo not drawn) [Example 332] | 88 nM | 2660 nM | 1.3 nM
COc1cc(-c2[nH]c3cc(C)c(C4CCC(N(C)Cc5ncn(C)n5)CC4)nc3c2C(C)C)cn2ncnc12 (stereo not drawn) [Example 333] | 12 nM | 1460 nM | 0.6 nM
COc1cc(-c2[nH]c3cc(C)c(C4CCC(N(C)CC(C)(C)C)CC4)nc3c2C(C)C)cn2ncnc12 (stereo not drawn) [Example 334] | 127 nM | 2400 nM | 4.6 nM
COc1cc(-c2[nH]c3cc(C)c(C4CCC(N(C)CC(C)(C)C)CC4)nc3c2C(C)C)cn2ncnc12 (stereo not drawn) [Example 336] | 48 nM | 3440 nM | 2.8 nM
COc1cc(-c2[nH]c3cc(C)c(C4CCC(N(C)CCC#N)CC4)nc3c2C(C)C)cn2ncnc12 (stereo not drawn) [Example 339] | 7.1 nM | 5890 nM | 0.2 nM
COc1cc(-c2[nH]c3cc(C)c(C4CCC(N(C)CCC#N)CC4)nc3c2C(C)C)cn2ncnc12 (stereo not drawn) [Example 340] | 51 nM | 1870 nM | 1.4 nM
Cc1c(-c2[nH]c3ccc(C4CCC(=O)CC4)nc3c2C(C)C)cn2ncnc2c1C [Example 349] | 63 nM | > 50000 nM | 7.7 nM
Cc1c(-c2[nH]c3ccc(C4CCC(NC5COC5)CC4)nc3c2C(C)C)cn2ncnc2c1C (stereo not drawn) [Example 350] | 1 nM | 1160 nM | 0.72 nM
Cc1c(-c2[nH]c3ccc(C4CCC(NC5COC5)CC4)nc3c2C(C)C)cn2ncnc2c1C (stereo not drawn) [Example 351] | 4.3 nM | 1690 nM | 2.3 nM
Cc1c(-c2[nH]c3ccc(C4CCC(NCC(=O)N(C)C)CC4)nc3c2C(C)C)cn2ncnc2c1C (stereo not drawn) [Example 352] | 9.2 nM | 2320 nM | 5.4 nM
Cc1c(-c2[nH]c3ccc(C4CCC(N(C)C)CC4)nc3c2C(C)C)cn2ncnc2c1C (stereo not drawn) [Example 353] | 0.96 nM | 940 nM | 0.64 nM
Cc1c(-c2[nH]c3ccc(C4CCC(NCC(=O)N(C)C)CC4)nc3c2C(C)C)cn2ncnc2c1C (stereo not drawn) [Example 354] | 2.3 nM | 790 nM | 1 nM
Cc1c(-c2[nH]c3ccc(C4CCC(N(C)C)CC4)nc3c2C(C)C)cn2ncnc2c1C (stereo not drawn) [Example 355] | 10 nM | 4500 nM | 2.6 nM
Cc1c(-c2[nH]c3ccc(C4CCC(N(C)C)CC4)nc3c2C(C)C)cn2ncnc2c1C (stereo not drawn) [Example 356] | 5.1 nM | 2860 nM | 2.8 nM
Cc1cnc(CNC2CCC(c3ccc4[nH]c(-c5cn6ncnc6c(C)c5C)c(C(C)C)c4n3)CC2)cn1 (stereo not drawn) [Example 357] | 4.4 nM | 1050 nM | 3.9 nM
Cc1c(-c2[nH]c3ccc(C4CCC(NC(C)C)CC4)nc3c2C(C)C)cn2ncnc2c1C (stereo not drawn) [Example 358] | 2.8 nM | 1320 nM | 0.95 nM
Cc1cnc(CNC2CCC(c3ccc4[nH]c(-c5cn6ncnc6c(C)c5C)c(C(C)C)c4n3)CC2)cn1 (stereo not drawn) [Example 359] | 29 nM | 4870 nM | 9.1 nM
Cc1c(-c2[nH]c3ccc(C4CCC(N5CCCC5)CC4)nc3c2C(C)C)cn2ncnc2c1C (stereo not drawn) [Example 360] | 3.4 nM | 1410 nM | 1.3 nM
Cc1c(-c2[nH]c3ccc(C4CCC(N(C)CCC#N)CC4)nc3c2C(C)C)cn2ncnc2c1C (stereo not drawn) [Example 361] | 1 nM | 1250 nM | 0.79 nM
Cc1c(-c2[nH]c3ccc(C4CCC(N5CCOCC5)CC4)nc3c2C(C)C)cn2ncnc2c1C (stereo not drawn) [Example 362] | 5.1 nM | 1630 nM | 1.6 nM
Cc1c(-c2[nH]c3ccc(C4CCC(NC(C)C)CC4)nc3c2C(C)C)cn2ncnc2c1C (stereo not drawn) [Example 363] | 6.6 nM | 1480 nM | 3.3 nM
Cc1c(-c2[nH]c3ccc(C4CCC(N(C)C(C)C)CC4)nc3c2C(C)C)cn2ncnc2c1C (stereo not drawn) [Example 364] | 9.6 nM | 2520 nM | 1.5 nM
Cc1c(-c2[nH]c3ccc(C4CCC(N(C)CCO)CC4)nc3c2C(C)C)cn2ncnc2c1C (stereo not drawn) [Example 365] | 7.9 nM | 3200 nM | 4.2 nM
